The IC50 is the concentration that inhibits the measured activity by half. Usually stoichiometry N stands for a count of units in the complex or per binding partner.

For experiment [1], the target named is T1, Staphylococcus aureus lipase (SAL) (Staphylococcus aureus, UniProt A0A0U1MWF9).
T1 construct: gene lip; one Ca and one Zn per monomer
The experiment is described as follows: p-nitrophenyl butyrate hydrolysis, absorbance […] nm. The experiment is classed as biochemical.

For experiment [2], the target named is Staphylococcus aureus lipase (Staphylococcus aureus). The experiment can be described thus: SEC + other: SEC-SAXS.

In the case of `CCCCCCCCCCC/C=C\CCCCC(=O)O` [PSA, petroselinic acid], 3.4 µM corresponded to half-maximal inhibition in experiment [1] (IC50).
`CCCCCCCCCCC/C=C\CCCCC(=O)OC` [PSM, petroselinic acid methyl ester]: the IC50 in experiment [1] stood at 10.5 µM.
With “Staphylococcus aureus lipase (from UniProt A0A1R3UHM3 1-645) (enzyme)”, the stoichiometry N in experiment [2] stood at 2.

(Values after paper PMC11148114 (FEBS Open Bio, 2024).)
